Measurements from US7534809B2, “Phospho-indoles as HIV inhibitors” (priority 2004, dated 2009).
Like-named read-outs stand apart in the source and are kept apart here.

Assays:
HIV BH-10 WT = test: Cell-based assay using BH-10 cells, wild type
HIV mutant strain Y181C = test: Cell-based assay using BH-10 cells, Y181C mutant
Description: (§1) In a typical embodiment, the NNRTIs display an EC50 in a mutant HIV strain of less than approximately 5, 2.5, 1 or 0.1 μM concentration. The degree of cross-resistance against a drug resistant strain of HIV is measured by assessing the EC50 of the desired oxo-pyrimidine compound in the target mutated, i.e., drug resistant, virus.
(§2) The degree of cross-resistance against a drug resistant strain of HIV can easily be measured by assessing the EC50 of the desired indole in the target mutated i.e., drug resistant, virus.

[1] = system: HIV mutant strain K103N/Y181C; test: Cell-based assay using BH-10 cells, K103N/Y181C mutant
Description: as §1, §2

[2] = BH-10 cells, wild type, read-out: EC50 WT///B
[3] = BH-10 cells, Y181C mutant, read-out: EC50 Y181C
[4] = BH-10 cells, K103N/Y181C mutant, read-out: EC50 K103N/Y181C
[5] = Human immunodeficiency virus 1, read-out: EC50 WT///B, BH-10 cells, wild type
[6] = Human immunodeficiency virus 1, read-out: EC50 Y181C, BH-10 cells, Y181C mutant
[7] = Human immunodeficiency virus 1, read-out: EC50 K103N/Y181C, BH-10 cells, K103N/Y181C mutant

Structure (SMILES)	EC50 (HIV BH-10 WT; [2])	EC50 (HIV mutant strain Y181C; [3])	EC50 [1, 4]	EC50 (HIV BH-10 WT; [5])	EC50 (HIV mutant strain Y181C; [6])	EC50 [1, 7]
COc1ccccc1P(=O)(OC)c1c(C(N)=O)[nH]c2ccc(Cl)cc12 (stereo not drawn) [Compound 7n]	1.7 nM	66 nM	1.5 nM	–	–	–
COP(=O)(c1cc(F)cc(C(F)(F)F)c1)c1c(C(N)=O)[nH]c2ccc(Cl)cc12 (stereo not drawn) [Compound 7q]	–	–	–	1.1 nM	16.6 nM	2.9 nM
COP(=O)(c1cc(C(F)(F)F)cc(C(F)(F)F)c1)c1c(C(N)=O)[nH]c2ccc(Cl)cc12 (stereo not drawn) [Compound 7s]	–	–	–	12.8 nM	68.3 nM	47.9 nM
COP(=O)(c1cccc2ccccc12)c1c(C(N)=O)[nH]c2ccc(Cl)cc12 (stereo not drawn) [Compound 7t]	–	–	–	0.6 nM	5.7 nM	2.6 nM
COP(=O)(c1cc(F)cc(Cl)c1)c1c(C(N)=O)[nH]c2ccc(Cl)cc12 (stereo not drawn) [Compound 7v]	–	–	–	0.8 nM	14.9 nM	2.3 nM
CCc1cc(C)cc(P(=O)(OC)c2c(C(N)=O)[nH]c3ccc(Cl)cc23)c1 (stereo not drawn) [Compound 7w]	–	–	–	0.4 nM	5.5 nM	1.2 nM
CCCc1cccc(P(=O)(OC)c2c(C(N)=O)[nH]c3ccc(Cl)cc23)c1 (stereo not drawn) [Compound 7x]	–	–	–	3 nM	13.8 nM	8.7 nM
COP(=O)(c1cc(C)cc(C)c1)c1c(C(N)=O)[nH]c2ccc(Cl)c(F)c12 (stereo not drawn) [Compound 7z]	–	–	–	2.1 nM	8.5 nM	2.2 nM
COP(=O)(c1cccc(C)c1)c1c(C(=O)NCc2ccncc2)[nH]c2ccc(Cl)cc12 (stereo not drawn) [Compound 18a]	–	–	–	1 nM	10.1 nM	3.1 nM
COP(=O)(c1cc(C)cc(C)c1)c1c(C(=O)NCc2cncn2C)[nH]c2ccc(Cl)cc12 (stereo not drawn) [Compound 18aaa]	–	–	–	3.2 nM	6.4 nM	3.3 nM
COP(=O)(c1ccccc1)c1c(C(=O)NCc2ccccc2F)[nH]c2ccc(Cl)cc12 (stereo not drawn) [Compound 18aab]	–	–	–	3.8 nM	33.5 nM	10.2 nM
COP(=O)(c1ccccc1)c1c(C(=O)NCN2CCOCC2)[nH]c2ccc(Cl)cc12 (stereo not drawn) [Compound 18aac]	–	–	–	0.5 nM	10.1 nM	14 nM
COP(=O)(c1cc(F)cc(F)c1)c1c(C(=O)NCc2ccccc2F)[nH]c2ccc(Cl)cc12 (stereo not drawn) [Compound 18aad]	–	–	–	11 nM	38.2 nM	12.5 nM
COP(=O)(c1cc(F)cc(F)c1)c1c(C(=O)NCc2cncn2C)[nH]c2ccc(Cl)cc12 (stereo not drawn) [Compound 18aae]	–	–	–	2.6 nM	10.5 nM	2.7 nM
COP(=O)(c1cc(C)cc(C#N)c1)c1c(C(=O)NCc2ccncc2)[nH]c2ccc(Cl)cc12 (stereo not drawn) [Compound 18aaf]	–	–	–	1.8 nM	3.9 nM	1.1 nM
COP(=O)(c1cc(C)cc(C#N)c1)c1c(C(=O)NCc2cncn2C)[nH]c2ccc(Cl)cc12 (stereo not drawn) [Compound 18aag]	–	–	–	3.1 nM	18.8 nM	2.9 nM
COP(=O)(c1cc(C)cc(C)c1)c1c(C(=O)NCc2c(F)cccc2F)[nH]c2ccc(Cl)cc12 (stereo not drawn) [Compound 18aah]	7 nM	22.8 nM	16.9 nM	–	–	–
COP(=O)(c1cc(C)cc(C)c1)c1c(C(=O)NCc2cc(F)ccc2F)[nH]c2ccc(Cl)cc12 (stereo not drawn) [Compound 18aai]	3.6 nM	15.6 nM	18.3 nM	–	–	–
COP(=O)(c1cc(C)cc(C)c1)c1c(C(=O)NCc2ccccc2C(F)(F)F)[nH]c2ccc(Cl)cc12 (stereo not drawn) [Compound 18aal]	–	–	–	30.1 nM	19.7 nM	21.8 nM
COP(=O)(c1cc(C)cc(C)c1)c1c(C(=O)NCc2ccccn2)[nH]c2ccc(Cl)cc12 (stereo not drawn) [Compound 18aam]	–	–	–	17.3 nM	6.8 nM	22.5 nM
COP(=O)(c1cc(C)cc(C)c1)c1c(C(=O)NCc2cccnc2)[nH]c2ccc(Cl)c(F)c12 (stereo not drawn) [Compound 18aan]	–	–	–	15 nM	304 nM	600 nM

Structure (SMILES)	EC50 (HIV BH-10 WT; [2])	EC50 (HIV mutant strain Y181C; [3])	EC50 [1, 4]	EC50 (HIV BH-10 WT; [5])	EC50 (HIV mutant strain Y181C; [6])	EC50 [1, 7]
COP(=O)(c1ccccc1)c1c(C(=O)N[C@H](C(N)=O)c2ccccc2)[nH]c2ccc(Cl)cc12 (stereo partly drawn) [Compound 18aao]	–	–	–	38.1 nM	287 nM	118 nM
C=Cc1cccc(P(=O)(OC)c2c(C(N)=O)[nH]c3ccc(Cl)cc23)c1 (stereo not drawn) [Compound 18aaq]	–	–	–	7.2 nM	18.4 nM	27.6 nM
CCc1cccc(P(=O)(OC)c2c(C(=O)NCc3ccncc3)[nH]c3ccc(Cl)cc23)c1 (stereo not drawn) [Compound 18ap]	–	–	–	5.8 nM	3.7 nM	5.8 nM
COP(=O)(c1cccc(C(C)C)c1)c1c(C(=O)NCc2ccncc2)[nH]c2ccc(Cl)cc12 (stereo not drawn) [Compound 18aq]	–	–	–	12 nM	31.7 nM	18.6 nM
COP(=O)(c1ccccc1)c1c(C(=O)NCc2cncn2C)[nH]c2ccc(Cl)cc12 (stereo not drawn) [Compound 18as]	–	–	–	0.3 nM	9.9 nM	0.6 nM
COP(=O)(c1ccccc1)c1c(C(=O)NCc2ccco2)[nH]c2ccc(Cl)cc12 (stereo not drawn) [Compound 18at]	–	–	–	1.8 nM	1.5 nM	0.5 nM
COc1cccc(P(=O)(OC)c2c(C(=O)NCc3ccco3)[nH]c3ccc(Cl)cc23)c1 (stereo not drawn) [Compound 18au]	–	–	–	0.8 nM	3.3 nM	6 nM
COP(=O)(c1cc(C)cc(C)c1)c1c(C(=O)NCc2ccncc2)[nH]c2ccc(Cl)cc12 (stereo not drawn) [Compound 18ax]	–	–	–	3 nM	7.2 nM	2.3 nM
COP(=O)(c1cc(C)cc(C)c1)c1c(C(=O)NCN2CCOCC2)[nH]c2ccc(Cl)cc12 (stereo not drawn) [Compound 18ay]	–	–	–	3.5 nM	19.8 nM	9.3 nM
COP(=O)(c1cc(C)cc(C)c1)c1c(C(=O)NCc2ccccc2F)[nH]c2ccc(Cl)cc12 (stereo not drawn) [Compound 18az]	–	–	–	3 nM	16.7 nM	8.5 nM
COP(=O)(c1cccc(C)c1)c1c(C(=O)NCc2ccco2)[nH]c2ccc(Cl)cc12 (stereo not drawn) [Compound 18b]	–	–	–	3.6 nM	10.1 nM	4 nM
COP(=O)(c1cccc(CF)c1)c1c(C(=O)NCc2ccncc2)[nH]c2ccc(Cl)cc12 (stereo not drawn) [Compound 18c]	–	–	–	2 nM	2.9 nM	4.7 nM
COP(=O)(c1cc(C)cc(F)c1)c1c(C(=O)NCc2ccncc2)[nH]c2ccc(Cl)cc12 (stereo not drawn) [Compound 18d]	–	–	–	2.3 nM	9.4 nM	3.7 nM
COP(=O)(c1cc(F)cc(F)c1)c1c(C(=O)NCc2ccncc2)[nH]c2ccc(Cl)cc12 (stereo not drawn) [Compound 18e]	–	–	–	3.5 nM	14.8 nM	12 nM
COP(=O)(c1cc(C)cc(C)c1)c1c(C(=O)NCc2cccnc2)[nH]c2ccc(Cl)cc12 (stereo not drawn) [Compound 18f]	–	–	–	2.3 nM	5.9 nM	3.4 nM
COP(=O)(c1cc(C)cc(C)c1)c1c(C(=O)NCCc2ccncc2)[nH]c2ccc(Cl)cc12 (stereo not drawn) [Compound 18g]	–	–	–	11.6 nM	30.6 nM	9.8 nM
COP(=O)(c1cc(C)cc(C)c1)c1c(C(=O)NCc2ccncc2F)[nH]c2ccc(Cl)cc12 (stereo not drawn) [Compound 18h]	–	–	–	1.7 nM	14.3 nM	4.3 nM
COP(=O)(c1cc(C)cc(C)c1)c1c(C(=O)NCc2cnccn2)[nH]c2ccc(Cl)cc12 (stereo not drawn) [Compound 18i]	–	–	–	3 nM	16.8 nM	1.8 nM
COP(=O)(c1cc(C)cc(C)c1)c1c(C(=O)NCc2cncnc2)[nH]c2ccc(Cl)cc12 (stereo not drawn) [Compound 18j]	3.6 nM	5.1 nM	1.9 nM	–	–	–
COP(=O)(c1cc(C)cc(C)c1)c1c(C(=O)NCc2ccc(Br)cc2)[nH]c2ccc(Cl)cc12 (stereo not drawn) [Compound 18k]	–	–	–	39.3 nM	102 nM	50.4 nM
COP(=O)(c1cc(C)cc(C)c1)c1c(C(=O)NCc2ccncn2)[nH]c2ccc(Cl)cc12 (stereo not drawn) [Compound 18l]	–	–	–	1.7 nM	2.5 nM	2.2 nM
